Laboratory results: patent US7723523B2, “Tetrahydropyridothiophenes” (4SC AG, priority 2004, dated 2010)

Tests used:
[1] = test system: RKO colon adenocarcinoma cells (RKOp27) arrested by expression of ectopic p27Kip1; assay: Alamar Blue cell viability assay on RKOp27 cells arrested by Ponasterone A-induced p27Kip1 (cell cycle specific mode of action); type: cell-based; conditions: Homo sapiens, RKOp27, 72 h, cells arrested by p27Kip1 induced with 10 μM Ponasterone A, 72 hours incubation, read-out: IC50 RKO p27 arrested
In short: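 Viability measured by Alamar Blue fluorescence (ex 544, em 590 nm) after 72 h, 37 °C compound exposure in quadruplicate, normalized to untreated cells as 100%. Cells were p27Kip1-arrested RKOp27, induced with 10 μM Ponasterone A at seeding; compound added 24 h later.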

[2] = test system: RKO (RKOp27) human colon adenocarcinoma cells; assay: Alamar Blue cell viability assay, anti-proliferative/cytotoxic activity on proliferating RKOp27 cells; type: cell-based; conditions: absence of Ponasterone A, 72 hours incubation, read-out: IC50 RKO p27 proliferating
In short: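 IC50 values come from concentration-effect curves of Alamar Blue fluorescence (544/590 nm), relative to untreated controls set at 100%. Cells were RKOp27, seeded at 4000/well in DMEM with 10% FCS and exposed from 24 h post-seeding for 72 h (37 °C, 5% CO2) to semi-log dilutions, each run in quadruplicate.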

## N#Cc1c(NC(=O)/C=C/c2ccccc2)sc2c1CCN(C(=O)CCc1c[nH]c3ccccc13)C2 [Example 171, (E)-N-[3-Cyano-6-(3-1H-indol-3-yl-propanoyl)-4,5,6,7-tetrahydro-thieno[2,3-c]pyridin-2-yl]-3-phenyl-acrylamide]
[1]
  IC50: ≥ 100 µM
[2]
  IC50: ≤ 2 µM

## N#Cc1c(NC(=O)/C=C/c2ccccc2)sc2c1CCN(C(=O)CCCc1c[nH]c3ccccc13)C2 [Example 172, (E)-N-[3-Cyano-6-(4-1H-indol-3-yl-butanoyl)-4,5,6,7-tetrahydro-thieno[2,3-c]pyridin-2-yl]-3-phenyl-acrylamide]
[1]
  IC50: ≥ 100 µM
[2]
  IC50: ≤ 2 µM

## N#Cc1c(NC(=O)/C=C/c2ccccc2)sc2c1CCN(C(=O)Cc1ccccn1)C2 [Example 174, (E)-N-[3-Cyano-6-(2-pyridin-2-yl-ethanoyl)-4,5,6,7-tetrahydro-thieno[2,3-c]pyridin-2-yl]-3-phenyl-acrylamide]
[1]
  IC50: ≥ 100 µM
[2]
  IC50: ≤ 2 µM

## COCCOCC(=O)N1CCc2c(sc(NC(=O)/C=C/c3ccccc3)c2C#N)C1 [Example 175, (E)-N-{3-Cyano-6-[2-(2-methoxy-ethoxy)-ethanoyl]-4,5,6,7-tetrahydro-thieno[2,3-c]pyridin-2-yl}-3-phenyl-acrylamide]
[1]
  IC50: ≥ 100 µM
[2]
  IC50: ≤ 2 µM

## CCOC(=O)CC(=O)N1CCc2c(sc(NC(=O)/C=C/c3ccccc3)c2C#N)C1 [Example 176, 3-[3-Cyano-2-((E)-3-phenyl-allanoylamino)-4,7-dihydro-5H-thieno[2,3-c]pyridin-6-yl]-3-oxo-propionic acid ethyl ester]
[1]
  IC50: ≥ 100 µM
[2]
  IC50: ≤ 2 µM

## COCCC(=O)N1CCc2c(sc(NC(=O)/C=C/c3ccccc3)c2C#N)C1 [Example 177, (E)-N-[3-Cyano-6-(3-methoxy-propanoyl)-4,5,6,7-tetrahydro-thieno[2,3-c]pyridin-2-yl]-3-phenyl-acrylamide]
[1]
  IC50: ≥ 100 µM
[2]
  IC50: ≤ 2 µM

## CN(C)C(=O)CCC(=O)N1CCc2c(sc(NC(=O)/C=C/c3ccccc3)c2C#N)C1 [Example 178, 4-[3-Cyano-2-((E)-3-phenyl-allanoylamino)-4,7-dihydro-5H-thieno[2,3-c]pyridin-6-yl]-N,N-dimethyl-4-oxo-butyramide]
[1]
  IC50: ≥ 100 µM
[2]
  IC50: ≤ 2 µM

## COCC(=O)N1CCc2c(sc(NC(=O)/C=C/c3ccccc3)c2C#N)C1 [Example 181, (E)-N-[3-Cyano-6-(2-methoxy-ethanoyl)-4,5,6,7-tetrahydro-thieno[2,3-c]pyridin-2-yl]-3-phenyl-acrylamide]
[1]
  IC50: ≥ 100 µM
[2]
  IC50: ≤ 2 µM

## N#Cc1c(NC(=O)/C=C/c2ccccc2)sc2c1CCN(C(=O)Cc1c[nH]c3ccccc13)C2 [Example 182, (E)-N-[3-Cyano-6-(2-1H-indol-3-yl-ethanoyl)-4,5,6,7-tetrahydro-thieno[2,3-c]pyridin-2-yl]-3-phenyl-acrylamide]
[1]
  IC50: ≥ 50 µM
[2]
  IC50: ≤ 0.5 µM

## N#Cc1c(NC(=O)/C=C/c2ccccc2)sc2c1CCN(C(=O)Cc1cccnc1)C2 [Example 183, (E)-N-[3-Cyano-6-(2-pyridin-3-yl-ethanoyl)-4,5,6,7-tetrahydro-thieno[2,3-c]pyridin-2-yl]-3-phenyl-acrylamide]
[1]
  IC50: ≥ 100 µM
[2]
  IC50: ≤ 2 µM

## N#Cc1c(NC(=O)/C=C/c2ccccc2)sc2c1CCN(C(=O)CCc1cccnc1)C2 [Example 185, (E)-N-[3-Cyano-6-(3-pyridin-3-yl-propanoyl)-4,5,6,7-tetrahydro-thieno[2,3-c]pyridin-2-yl]-3-phenyl-acrylamide]
[1]
  IC50: ≥ 100 µM
[2]
  IC50: ≤ 2 µM

## COC(=O)CCCC(=O)N1CCc2c(sc(NC(=O)/C=C/c3ccccc3)c2C#N)C1 [Example 186, 5-[3-Cyano-2-((E)-3-phenyl-allanoylamino)-4,7-dihydro-5H-thieno[2,3-c]pyridin-6-yl]-5-oxo-pentanoic acid methyl ester]
[1]
  IC50: ≥ 100 µM
[2]
  IC50: ≤ 2 µM

## N#Cc1c(NC(=O)/C=C/c2ccccc2)sc2c1CCN(C(=O)CO)C2 [Example 187, (E)-N-[3-Cyano-6-(2-hydroxy-ethanoyl)-4,5,6,7-tetrahydro-thieno[2,3-c]pyridin-2-yl]-3-phenyl-acrylamide]
[1]
  IC50: ≥ 100 µM
[2]
  IC50: ≤ 2 µM

## N#Cc1c(NC(=O)/C=C/c2ccccc2)sc2c1CCN(C(=O)Cn1ccnc1)C2 [Example 188, (E)-N-[3-Cyano-6-(2-imidazol-1-yl-ethanoyl)-4,5,6,7-tetrahydro-thieno[2,3-c]pyridin-2-yl]-3-phenyl-acrylamide]
[1]
  IC50: ≥ 100 µM
[2]
  IC50: ≤ 2 µM

## CC(=O)OCC(=O)N1CCc2c(sc(NC(=O)/C=C/c3ccccc3)c2C#N)C1 [Example 189, Acetic acid 2-[3-cyano-2-((E)-3-phenyl-allanoylamino)-4,7-dihydro-5H-thieno[2,3-c]pyridin-6-yl]-2-oxo-ethyl ester]
[1]
  IC50: ≥ 100 µM
[2]
  IC50: ≤ 2 µM

## N#Cc1c(NC(=O)/C=C/c2ccccc2)sc2c1CCN(C(=O)CCCn1ccnc1)C2 [Example 190, (E)-N-[3-Cyano-6-(4-imidazol-1-yl-butanoyl)-4,5,6,7-tetrahydro-thieno[2,3-c]pyridin-2-yl]-3-phenyl-acrylamide]
[1]
  IC50: ≥ 100 µM
[2]
  IC50: ≤ 2 µM

## CC(=O)OCCCC(=O)N1CCc2c(sc(NC(=O)/C=C/c3ccccc3)c2C#N)C1 [Example 191, Acetic acid 4-[3-cyano-2-((E)-3-phenyl-allanoylamino)-4,7-dihydro-5H-thieno[2,3-c]pyridin-6-yl]-4-oxo-butyl ester]
[1]
  IC50: ≥ 100 µM
[2]
  IC50: ≤ 2 µM

## N#Cc1c(NC(=O)/C=C/c2ccccc2)sc2c1CCN(C(=O)CCCO)C2 [Example 192, (E)-N-[3-Cyano-6-(4-hydroxy-butanoyl)-4,5,6,7-tetrahydro-thieno[2,3-c]pyridin-2-yl]-3-phenyl-acrylamide]
[1]
  IC50: ≥ 100 µM
[2]
  IC50: ≤ 2 µM

## N#Cc1c(NC(=O)/C=C/c2cccnc2)sc2c1CCN(C(=O)CCc1cccnc1)C2 [Example 193, (E)-N-[3-Cyano-6-(3-pyridin-3-yl-propanoyl)-4,5,6,7-tetrahydro-thieno[2,3-c]pyridin-2-yl]-3-pyridin-3-yl-acrylamide]
[1]
  IC50: ≥ 100 µM
[2]
  IC50: ≤ 2 µM

## COCC(=O)N1CCc2c(sc(NC(=O)/C=C/c3cccnc3)c2C#N)C1 [Example 194, (E)-N-[3-Cyano-6-(2-methoxy-ethanoyl)-4,5,6,7-tetrahydro-thieno[2,3-c]pyridin-2-yl]-3-pyridin-3-yl-acrylamide]
[1]
  IC50: ≥ 100 µM
[2]
  IC50: ≤ 2 µM

## COCCC(=O)N1CCc2c(sc(NC(=O)/C=C/c3cccnc3)c2C#N)C1 [Example 195, (E)-N-[3-Cyano-6-(3-methoxy-propanoyl)-4,5,6,7-tetrahydro-thieno[2,3-c]pyridin-2-yl]-3-pyridin-3-yl-acrylamide]
[1]
  IC50: ≥ 100 µM
[2]
  IC50: ≤ 2 µM

## N#Cc1c(NC(=O)/C=C/c2cccnc2)sc2c1CCN(C(=O)Cc1ccccn1)C2 [Example 196, (E)-N-[3-Cyano-6-(2-pyridin-2-yl-ethanoyl)-4,5,6,7-tetrahydro-thieno[2,3-c]pyridin-2-yl]-3-pyridin-3-yl-acrylamide]
[1]
  IC50: ≥ 100 µM
[2]
  IC50: ≤ 2 µM

## N#Cc1c(NC(=O)/C=C/c2cccnc2)sc2c1CCN(C(=O)CCc1nccs1)C2 [Example 198, (E)-N-[3-Cyano-6-(3-thiazol-2-yl-propanoyl)-4,5,6,7-tetrahydro-thieno[2,3-c]pyridin-2-yl]-3-pyridin-3-yl-acrylamide]
[1]
  IC50: ≥ 100 µM
[2]
  IC50: ≤ 2 µM

## COCCOCC(=O)N1CCc2c(sc(NC(=O)/C=C/c3cccnc3)c2C#N)C1 [Example 200, (E)-N-{3-Cyano-6-[2-(2-methoxy-ethoxy)-ethanoyl]-4,5,6,7-tetrahydro-thieno[2,3-c]pyridin-2-yl}-3-pyridin-3-yl-acrylamide]
[1]
  IC50: ≥ 100 µM
[2]
  IC50: ≤ 2 µM

## N#Cc1c(NC(=O)/C=C/c2cccnc2)sc2c1CCN(C(=O)Cc1cccnc1)C2 [Example 205, (E)-N-[3-Cyano-6-(2-pyridin-3-yl-ethanoyl)-4,5,6,7-tetrahydro-thieno[2,3-c]pyridin-2-yl]-3-pyridin-3-yl-acrylamide]
[1]
  IC50: ≥ 100 µM
[2]
  IC50: ≤ 2 µM

## COc1ccccc1/C=C/C(=O)Nc1sc2c(c1C#N)CCN(C(=O)CCc1cccnc1)C2 [Example 206, (E)-N-[3-Cyano-6-(3-pyridin-3-yl-propanoyl)-4,5,6,7-tetrahydro-thieno[2,3-c]pyridin-2-yl]-3-(2-methoxy-phenyl)-acrylamide]
[1]
  IC50: ≥ 100 µM
[2]
  IC50: ≤ 2 µM

## COCCOCC(=O)N1CCc2c(sc(NC(=O)/C=C/c3ccccc3OC)c2C#N)C1 [Example 209, (E)-N-{3-Cyano-6-[2-(2-methoxy-ethoxy)-ethanoyl]-4,5,6,7-tetrahydro-thieno[2,3-c]pyridin-2-yl}-3-(2-methoxy-phenyl)-acrylamide]
[1]
  IC50: ≥ 100 µM
[2]
  IC50: ≤ 2 µM

## COCC(=O)N1CCc2c(sc(NC(=O)/C=C/c3ccccc3OC)c2C#N)C1 [Example 210, (E)-N-[3-Cyano-6-(2-methoxy-ethanoyl)-4,5,6,7-tetrahydro-thieno[2,3-c]pyridin-2-yl]-3-(2-methoxy-phenyl)-acrylamide]
[1]
  IC50: ≥ 100 µM
[2]
  IC50: ≤ 2 µM

## COCCC(=O)N1CCc2c(sc(NC(=O)/C=C/c3ccccc3OC)c2C#N)C1 [Example 211, (E)-N-[3-Cyano-6-(3-methoxy-propanoyl)-4,5,6,7-tetrahydro-thieno[2,3-c]pyridin-2-yl]-3-(2-methoxy-phenyl)-acrylamide]
[1]
  IC50: ≥ 100 µM
[2]
  IC50: ≤ 2 µM
